The test system of one series is expert panelists. As to the kind of experiment: Warming evaluation in milk chocolate by expert panelists (Example 17). The settings on record: 5% cut in MCT at 0.3% in milk chocolate; for Average Warming Intensity (1-9): 1=none, 9=very strong, control without warming compound 1.7; for Onset: panelists chose slow, medium or fast. The series is classed as in vivo, human.

The next series has as its system panelists. The series is described as follows: Warming sensation in lotion, panel evaluation (Example 20). The series is classed as in vivo, human. The settings on record: for Overall warming intensity (1 = no effect, 5 = extremely warming): 0.5% loading in in-house lotion base, 5 panelists, control 1.25. From the text:
All materials were made with 0.5% loading of active compound in an in-house lotion base except the control, which contains no active material. There were a total of 5 panelists to evaluate the lotion samples.

A further series concerns mouth. The series is described as follows: Perceived warming sensations in the mouth, "swish and spit" protocol (Example 15). The series is classed as in vivo, human. The settings on record: 1% by weight in ethanol, diluted at 10 ppm in water, one comment per participant (5 expert evaluators). The protocol:
A warming composition was prepared by adding 1% by weight of the warming agent of Example 1 to ethanol. The resulting warming composition was diluted at 10 ppm in water. The diluted warming composition was evaluated for its perceived warming sensations in the mouth by 5 expert evaluators following a “swish and spit” protocol, in which the sample is placed into a small tasting cup, taken into the mouth, and swished around, then the sample is spit back into the original tasting cup and disposed of. Additional compounds were evaluated and compared for perceived warming sensations in the mouth by expert evaluators following the “swish and spit” protocol.

Broadly, the melting point is the temperature, or range, at which the solid turns liquid.

For the compound `COc1cc(CC(=O)OC/C=C(\C)CCC=C(C)C)ccc1O` [Example 13, (E)-3,7-Dimethylocta-2,6-dien-1-yl 2-(4-hydroxy-3-methoxyphenyl)acetate], the “Average Warming Intensity (1-9)” value in the series on expert panelists (10 expert panelists) was 2.7. Further, in the series with expert panelists, the Onset result is given as “Slow (“slow onset” relates to the onset of warming sensation occurring after about 15 seconds (i.e., delayed))”. Further, the “Overall warming intensity (1 = no effect, 5 = extremely warming)” value in the series with panelists is reported as 2.70.

`COc1ccc(CC(C)COC(=O)Cc2ccc(O)c(OC)c2)cc1` (stereo not shown) [Example 5, 3-(4-methoxyphenyl)-2-methylpropyl 2-(4-hydroxy-3-methoxyphenyl)acetate]: in the series on expert panelists (10 expert panelists), the “Average Warming Intensity (1-9)” value is listed as 2.25. Also, in the series on expert panelists, the Onset entry is given as “Slow (“slow onset” relates to the onset of warming sensation occurring after about 15 seconds (i.e., delayed))”. Further, the “Overall warming intensity (1 = no effect, 5 = extremely warming)” value in the series with panelists is 1.80.

As for `COc1cc(CC(=O)OCCOc2ccccc2)ccc1O` [Example 1, 2-Phenoxyethyl 2-(4-hydroxy-3-methoxyphenyl)acetate], the melting point was found to be 56 °C. The “Average Warming Intensity (1-9)” value in the series with expert panelists (10 expert panelists) was 6.8. For the same compound, the Character/Comments result with expert panelists (10 expert panelists, listed as compound C) was “pleasant linger, without an irritating burn”. Also, the Onset entry in the series on expert panelists is on record as “Fast (“fast onset” relates to the onset of warming sensation in less than about 10 seconds (i.e., quick))”. Further, the “Comments (perceived warming sensations in the mouth)” value in the series with mouth is given as “Immediate burn, intense but fades really quickly”. In addition, the “Heat sensation when working out (sweating) after application” value with panelists (0.5% in lotion base, noticed by an evaluator) is listed as “the heat sensation came back at the same intensity as first described at initial application”. Also, the “Overall warming intensity (1 = no effect, 5 = extremely warming)” value in the series with panelists is reported as 2.90.

(Values after patent US11059771B2, “Warming sensation compounds” (TAKASAGO INTERNATIONAL CORPORATION, priority 2016, dated 2021).)
